According to US7990502B2, “Liquid-crystal display device” (Fujifilm Corporation, priority 2007, dated 2011):

Assay: log P value (octanol-water partition coefficient) of the compound capable of mending the humidity dependence
Assay type: physicochemical
Conditions: octanol-water partition coefficient of the humidity-dependence mending compound used in the second retardation film
Source text: Log P of the compound capable of mending the humidity dependence for use in the invention is preferably from 3 to 10, more preferably from 3 to 7. Using the compound capable of mending the humidity dependence having log P that falls within the above range may reduce the humidity dependence of Re not causing a face condition trouble such as bleeding out, etc.
The log P value means an octanol-water partition coefficient, and it may be determined according to the flask shaking method described in JIS (Japanese Industrial Standards) Z7260-107 (2000). In place of determining it through actual measurement, the octanol-water partition coefficient (log P value) may be estimated according to a computational chemical method or an experimental method. As the computational method, preferably employed are a Crippen's fragmentation method (J. Chem. Inf. Comput. Sci., 27, 21 (1987)), a Viswanadhan's fragmentation method (J. Chem. Inf. Comput. Sci., 29, 163 (1989)), a Broto's fragmentation method (Eur. J. Med. Chem.-Chim. Theor., 19, 71 (1984)). Particularly, the Crippen's fragmentation method (J. Chem. Inf. Comput. Sci., 27, 21 (1987)) is preferably employed. In case where the log P value of a certain compound differs depending on the measurement method or the computational method employed, the compound is preferably judged according to a Crippen's fragmentation method as to whether or not it could fall within the preferred range.

Row | logP | SMILES
1 | 11 | CCCCCCCc1ccc(OC(=O)[C@H]2CC[C@H](C(=O)Oc3ccc(CCCCCCC)cc3)CC2)cc1 [D]
2 | 5.8 | CCc1ccc(OC(=O)[C@H]2CC[C@H](C(=O)Oc3ccc(CC)cc3)CC2)cc1 [Compound A-3]
3 | 5.7 | Cc1ccc(OC(=O)[C@H]2CC[C@H](C(=O)Oc3ccc(C)cc3C)CC2)c(C)c1 [Compound A-6]
4 | 3.7 | O=C(Oc1ccccc1)[C@H]1CC[C@H](C(=O)Oc2ccccc2)CC1 [Compound A-1]
